The nature of data set [1]: Assessment of physical stability (Thioflavin T fibrillation). Particulars: 1 mg/ml, 40° C., ThT; for Fibrillation pH 4.0 (Ac): 50 mM acetate buffer pH 4.0, 96 hours; for Fibrillation pH 7.0 (His): 50 mM histidine buffer pH 7.0, 96 hours; for Fibrillation pH 7.0 (Phos.): 50 mM phosphate buffer pH 7.0, 96 hours. More on the design: key: FND = fibrillation not detected; FD = fibrillation detected. The class given is physicochemical. Summed up:
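Fibrillation lag-time, in hours, taken where regressions of the initial stable phase and the growth phase intersect. ThT (40 μM) fluorescence monitored at 40 °C for 96 h, 10-min reads each preceded by 300 s mixing. Peptide at 1 mg/ml in 50 mM buffers: phosphate or histidine pH 7.0, acetate pH 4.0.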

The target in data set [2] is T1, human calcitonin receptor (hCTR2) (Homo sapiens, UniProt P30988).
T1 construct: expressed in transfected cells
T1 sequence (P30988 25-474): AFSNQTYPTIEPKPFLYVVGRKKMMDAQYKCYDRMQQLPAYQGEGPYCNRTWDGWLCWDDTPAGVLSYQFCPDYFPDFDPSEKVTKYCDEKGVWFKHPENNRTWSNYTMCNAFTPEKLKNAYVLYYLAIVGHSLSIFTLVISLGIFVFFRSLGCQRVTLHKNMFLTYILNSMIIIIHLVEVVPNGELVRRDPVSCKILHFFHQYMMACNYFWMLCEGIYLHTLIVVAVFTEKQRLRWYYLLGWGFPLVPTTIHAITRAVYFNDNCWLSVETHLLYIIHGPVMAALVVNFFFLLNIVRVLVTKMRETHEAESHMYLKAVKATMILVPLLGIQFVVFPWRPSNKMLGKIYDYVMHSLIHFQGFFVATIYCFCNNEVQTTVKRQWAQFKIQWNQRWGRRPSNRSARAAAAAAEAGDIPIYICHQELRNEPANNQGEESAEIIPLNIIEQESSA
In words: hCTR2 cAMP assay (AlphaScreen) in COS7 cells. Format: cell-based. Particulars: cAMP induction, COS7 cells expressing hCTR2; Table 1; read-out: hCTR2 EC50. In a few lines: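 cAMP induction, read by AlphaScreen after lysis, gives EC50 values via 4PL curve fitting. Peptides were applied at rising concentrations for 15 min at 37 °C, with IBMX and 0.1% casein in HEPES-buffered Tyrode pH 7.4, to COS7 cells (no endogenous RAMPs) stably expressing human CTR2.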

The target in data set [3] is T2, human amylin receptor 3 (hAMYR3), hCTR2 co-expressed with hRAMP3 (Homo sapiens, UniProt O60896+P30988).
T2 construct: expressed in transfected cells
T2 sequence (P30988 25-474): T1 sequence (P30988 25-474)
T2 sequence (O60896 24-148 partner): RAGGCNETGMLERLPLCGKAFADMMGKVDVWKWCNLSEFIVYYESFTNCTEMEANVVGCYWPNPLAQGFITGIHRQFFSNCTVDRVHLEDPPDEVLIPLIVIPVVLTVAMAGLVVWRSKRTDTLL
In words: hAMYR3 cAMP assay (AlphaScreen) in COS7 cells. Format: cell-based. Particulars: cAMP induction, COS7 cells expressing hAMYR3; Table 1; read-out: hAMYR3 EC50. Summed up:
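EC50 values derive from 4PL curve fits of cAMP (AlphaScreen) in lysates of RAMP-naive COS7 cells stably carrying hCTR2 plus hRAMP3. Peptide dilution series were applied for 15 min at 37 °C in pH 7.4 Tyrode buffer containing 100 µM IBMX and 0.1% casein.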
Background: Cyclic AMP is a second messenger, typically raised through Gs and lowered through Gi signalling.

Data set [4] in a line: Assessment of chemical stability (RP-HPLC normalized purity). Format: physicochemical. Particulars: for Normalized purity after 7 days, 40° C., pH 4: pH 4, 0.2 mg/ml; for Normalized purity after 7 days, 40° C., pH 4 / Normalized purity after 7 days, 40° C., pH 6 / Normalized purity after 7 days, 40° C., pH 7.5 / Normalized purity after 7 days, 40° C., pH 9: Table 1; for Normalized purity after 7 days, 40° C., pH 6: pH 6, 0.2 mg/ml; for Normalized purity after 7 days, 40° C., pH 7.5: pH 7.5, 0.2 mg/ml; for Normalized purity after 7 days, 40° C., pH 9: pH 9, 0.2 mg/ml. In a few lines: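 Purity after 7 days at 40° C is expressed relative to T=0 (set to 100) for each pH. Samples at 0.2 mg/ml, pH 4, 6, 7.5 or 9, analyzed by RP-HPLC with UV 220 nm on C8 (ammonium formate) or C18 (TFA) gradients.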

*1 amine or outer side, *2 acyl side, *3 side chain or, on linkers, in order; H or OH if unused. Where a SMILES comes first, the peptide text is derived from it. Bridges are numbered along the chain shown (N, C = ends). [ ]: non-standard residue; d: D form. The star is where a group is joined. C20 diacid = O=C(O)CCCCCCCCCCCCCCCCCCC(=O)*; γGlu = O=C(O)[C@H](CCC(=O)[*:2])N[*:1]; Hyp = O=C(O)[C@@H]1C[C@@H](O)CN1; NMeI = CC[C@H](C)[C@H](NC)C(=O)O; Aad = N[C@@H](CCCC(=O)O)C(=O)O; Sar = CNCC(=O)O

A word on the EC50: it is the concentration giving half of the maximal effect. Take `CC[C@H](C)[C@@H](C(=O)N[C@@H](CC(C)C)C(=O)N[C@@H](CO)C(=O)N[C@@H](CO)C(=O)N[C@H](C(=O)N[C@@H](CCC(=O)O)C(=O)N[C@H](C(=O)NCC(=O)N[C@@H](CO)C(=O)N[C@@H](CC(N)=O)C(=O)N[C@H](C(=O)N1C[C@H](O)C[C@H]1C(N)=O)[C@@H](C)O)C(C)C)[C@@H](C)O)N(C)C(=O)[C@H](C)NC(=O)CN(C)C(=O)[C@H](Cc1ccccc1)NC(=O)[C@H](CO)NC(=O)[C@H](CO)NC(=O)[C@H](CCCNC(=N)N)NC(=O)[C@H](CCC(N)=O)NC(=O)[C@H](CC(C)C)NC(=O)[C@H](Cc1ccccc1)NC(=O)[C@H](CCCC(=O)O)NC(=O)[C@H](C)NC(=O)[C@H](CC(C)C)NC(=O)[C@H](CCCNC(=N)N)NC(=O)[C@H](CC(=O)O)NC(=O)[C@@H](NC(=O)[C@H](C)NC(=O)[C@@H]1CSSC[C@H](NC(=O)[C@H](CCCNC(=N)N)NC(=O)CC[C@H](NC(=O)CCCCCCCCCCCCCCCCCCC(=O)O)C(=O)O)C(=O)N[C@@H](CCC(N)=O)C(=O)N[C@@H]([C@@H](C)O)C(=O)N[C@@H](C)C(=O)N[C@@H]([C@@H](C)O)C(=O)N1)[C@@H](C)O` [Compound 89, [19CD]-isoGlu-R-C( )-QTAT-C( )-ATDRLA-Aad-FLQRSSF-Gly(Me)-A-Ile(Me)-LSSTEVGSNT-Hyp-NH2] ({C20 diacid-γGlu}-RCQTATCATDRLA[Aad]FLQRSSF[Sar]A[NMeI]LSSTEVGSNT[Hyp]-NH2; disulfide 2-7): in data set [1], the “Fibrillation pH 4.0 (Ac)” value was “FND”, the “Fibrillation pH 7.0 (His)” value is recorded as “FND” and the “Fibrillation pH 7.0 (Phos.)” value is given as “FND”. The EC50 in data set [2] came to 0.16 nM. Besides, in data set [3], the EC50 is 0.2 nM. Further, in data set [4], the “Normalized purity after 7 days, 40° C., pH 4” value was “A (A = >90%)”; the “Normalized purity after 7 days, 40° C., pH 6” value is “A (A = >90%)”; the “Normalized purity after 7 days, 40° C., pH 7.5” value is listed as “A (A = >90%)”; the “Normalized purity after 7 days, 40° C., pH 9” value was “B (B = 70-90%)”. Besides, in data set [4] (pH 4, repeat of Example 6 for pairs with/without Asn-Asn at 21-22), the “Normalized purity pH 4 (Table 5)” value is “A (A = >90%)”. Moreover, the “Normalized purity pH 6 (Table 5)” value in data set [4] (pH 6, repeat of Example 6 for pairs with/without Asn-Asn at 21-22) was “A (A = >90%)”. In addition, the “Normalized purity pH 7.5 (Table 5)” value in data set [4] (pH 7.5, repeat of Example 6 for pairs with/without Asn-Asn at 21-22) is “A (A = >90%)”. For the same molecule, the “Normalized purity pH 9 (Table 5)” value in data set [4] (pH 9, repeat of Example 6 for pairs with/without Asn-Asn at 21-22) is “A (A = >90%)”.

`CC[C@H](C)[C@@H](C(=O)N[C@@H](CC(C)C)C(=O)N[C@@H](CO)C(=O)N[C@@H](CO)C(=O)N[C@H](C(=O)N[C@@H](CCC(=O)O)C(=O)N[C@H](C(=O)NCC(=O)N[C@@H](CO)C(=O)NCC(=O)N[C@H](C(=O)N1C[C@H](O)C[C@H]1C(N)=O)[C@@H](C)O)C(C)C)[C@@H](C)O)N(C)C(=O)[C@H](C)NC(=O)CN(C)C(=O)[C@H](Cc1ccccc1)NC(=O)[C@H](CO)NC(=O)[C@H](CO)NC(=O)[C@H](CCCNC(=N)N)NC(=O)[C@H](CCC(N)=O)NC(=O)[C@H](CC(C)C)NC(=O)[C@H](Cc1ccccc1)NC(=O)[C@H](Cc1c[nH]cn1)NC(=O)[C@H](C)NC(=O)[C@H](CC(C)C)NC(=O)[C@H](CCCNC(=N)N)NC(=O)[C@H](CC(=O)O)NC(=O)[C@@H](NC(=O)[C@H](C)NC(=O)[C@@H]1CSSC[C@H](NC(=O)[C@H](CCCNC(=N)N)NC(=O)CC[C@H](NC(=O)CCCCCCCCCCCCCCCCCCC(=O)O)C(=O)O)C(=O)N[C@@H](CCC(N)=O)C(=O)N[C@@H]([C@@H](C)O)C(=O)N[C@@H](C)C(=O)N[C@@H]([C@@H](C)O)C(=O)N1)[C@@H](C)O` [Compound 91, [19CD]-isoGlu-R-C( )-QTAT-C( )-ATDRLAHFLQRSSF-Gly(Me)-A-Ile(Me)-LSSTEVGSGT-Hyp-NH2] ({C20 diacid-γGlu}-RCQTATCATDRLAHFLQRSSF[Sar]A[NMeI]LSSTEVGSGT[Hyp]-NH2; disulfide 2-7): in data set [1], the “Fibrillation pH 4.0 (Ac)” value is reported as “FND”, the “Fibrillation pH 7.0 (His)” value is “FND” and the “Fibrillation pH 7.0 (Phos.)” value is recorded as “FND”. In data set [2], the EC50 came to 0.08 nM. In addition, in data set [3], the EC50 amounted to 0.17 nM. Further, in data set [4], the “Normalized purity after 7 days, 40° C., pH 4” value was “A (A = >90%)”; the “Normalized purity after 7 days, 40° C., pH 6” value was “A (A = >90%)”; the “Normalized purity after 7 days, 40° C., pH 7.5” value is given as “A (A = >90%)”; the “Normalized purity after 7 days, 40° C., pH 9” value is listed as “A (A = >90%)”.

Regarding `CC[C@H](C)[C@@H](C(=O)N[C@@H](CC(C)C)C(=O)N[C@@H](CO)C(=O)N[C@@H](CO)C(=O)N[C@H](C(=O)N[C@@H](CCC(=O)O)C(=O)N[C@H](C(=O)NCC(=O)N[C@@H](CO)C(=O)N[C@@H](CC(N)=O)C(=O)N[C@H](C(=O)N1CCC[C@H]1C(N)=O)[C@@H](C)O)C(C)C)[C@@H](C)O)N(C)C(=O)[C@H](C)NC(=O)CN(C)C(=O)[C@H](Cc1ccccc1)NC(=O)[C@H](CCCNC(=N)N)NC(=O)[C@H](CCC(N)=O)NC(=O)[C@H](CC(C)C)NC(=O)[C@H](Cc1ccccc1)NC(=O)[C@H](Cc1c[nH]cn1)NC(=O)[C@H](C)NC(=O)[C@H](CC(C)C)NC(=O)[C@H](CCCNC(=N)N)NC(=O)[C@H](CCC(=O)O)NC(=O)[C@@H](NC(=O)[C@H](C)NC(=O)[C@@H]1CSSC[C@H](NC(=O)[C@H](CCCNC(=N)N)NC(=O)CC[C@H](NC(=O)CCCCCCCCCCCCCCCCCCC(=O)O)C(=O)O)C(=O)N[C@@H](CCC(N)=O)C(=O)N[C@@H]([C@@H](C)O)C(=O)N[C@@H](C)C(=O)N[C@@H]([C@@H](C)O)C(=O)N1)[C@@H](C)O` [Compound 96, [19CD]-isoGlu-R-C( )-QTAT-C( )-ATERLAHFLQRF-Gly(Me)-A-Ile(Me)-LSSTEVGSNTP-NH2] ({C20 diacid-γGlu}-RCQTATCATERLAHFLQRF[Sar]A[NMeI]LSSTEVGSNTP-NH2; disulfide 2-7), in data set [1], the “Fibrillation pH 4.0 (Ac)” value is “FND”, the “Fibrillation pH 7.0 (His)” value is recorded as “FND” and the “Fibrillation pH 7.0 (Phos.)” value is listed as “FND”. In addition, in data set [2], the EC50 worked out at 0.33 nM. In data set [3], the EC50 is 0.28 nM. In data set [4], the “Normalized purity after 7 days, 40° C., pH 4” value is on record as “A (A = >90%)”; the “Normalized purity after 7 days, 40° C., pH 6” value is recorded as “A (A = >90%)”; the “Normalized purity after 7 days, 40° C., pH 7.5” value is “A (A = >90%)”; the “Normalized purity after 7 days, 40° C., pH 9” value is “A (A = >90%)”.

The record behind these values is US20210115104A1, “AMYLIN ANALOGUES” (Zealand Pharma A/S, priority 2015, published 2021).
